# Where two headings read alike, the source gives them in different places.
# How the values were obtained:
# CX-1 cells = test: selective killing assay, colony number reduced to 50% of control, human colon carcinoma cell line CX-1; type: cell-based; details: for Selectivity (ratio of IC50 for CV-1 and IC50 for CX-1): CV-1/CX-1; for IC50: Homo sapiens, CX-1, Table III; for IC50 / CX-1 (IC50): human colon carcinoma, 24 hours treatment, colony count after 7 to 10 days; for CX-1 (IC50): Table III;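 as to all read-outs here: colonies stained with crystal violet and counted, control cells given medium alone, exposure at 37 °C, normal monkey kidney epithelial CV-1 cells as the non-cancer comparator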
# Description: (§1) Human colon carcinoma cell line CX-1 or normal monkey kidney epithelial cell line CV-1 was chosen as representatives of cancer cells and normal cells, respectively. […] CX-1 cells (2,000 cells/well) and CV-1 cells (1,000 cells/well) were plated in 24-well plastic culture plates. […] The control received culture media only. Cells were treated with compounds of General Formulas (I) to (V) at 37° C. for 24 hours. After rinsing with fresh culture medium three times, the cells were further incubated at 37° C. for 7 to 10 days. Cell colonies were fixed and stained with 2% crystal violet in 70% ethanol for 10 minutes and rinsed in water. […] The selectivity is defined as the ratio of IC50 for CV-1 and IC50 for CX-1.
# human melanoma LOX = test: survival of nude mice implanted with human melanoma LOX; type: in vivo, male athymic Swiss nu/nu mouse (human tumor); details: Mus musculus, ip, 24 h, read-out: T/C
# Description: LOX, a human melanoma cell line, grown subcutaneously in nude mice was excised, trypsinized to yield a single cell suspension using a metal grid with a […] mesh. […] Five million viable trypan blue negative cells made up in 0.1 ml of Dulbecco modified Eagle medium (DMFE) were injected into the peritoneal cavity of a male athymic Swiss nu/nu mouse. The control group and each treatment group consisted of 5 to 10 mice. Treatment was commenced the following day by intraperitoneal injection.
# Ten control mice received 0.25 ml of 2% dextrose on these days the treated groups were injected with the compounds of this invention. […] T/C is the ratio, expressed as a percentage of the mean survival age of the treated group to the mean survival age of the untreated control group.
# CV-1 cells = test: selective killing assay, colony number reduced to 50% of control, normal monkey kidney epithelial cell line CV-1; type: cell-based; details: 24 hours treatment; for IC50: Primates
# Excerpt: The control received culture media only.
# LOX cells = test: colony assay of Example 1 with human melanoma LOX cell line; type: cell-based; details: for Selectivity: CV-1/LOX; for IC50: Homo sapiens, LOX, 24 h; for IC50 / LOX(IC50): Table V, human melanoma, 24 hours treatment;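 as to all read-outs here: colony formation assay with 24 h exposure at 37 °C, then 7 to 10 days of regrowth, crystal violet staining of colonies, control wells given medium alone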
# CRL 1420 cells = test: colony assay of Example 1 with human pancreatic carcinoma CRL 1420 cell line; type: cell-based; details: for Selectivity: CV-1/CRL-1420; for IC50: Homo sapiens, 24 h; for IC50 / CRL-1420(IC50): Table VII, human pancreatic carcinoma, 24 hours treatment;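 as to all read-outs here: colony formation assay, cells exposed for 24 h then regrown 7 to 10 days without compound, colonies stained with crystal violet, control given medium alone, normal reference CV-1 monkey kidney epithelial cells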
# Description: as §1
# EJ cells = test: colony assay of Example 1 with human bladder carcinoma EJ cell line; type: cell-based; details: for Selectivity: CV-1/EJ; for IC50: Homo sapiens, EJ, 24 h;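 as to all read-outs here: colony formation assay with 24 h compound exposure at 37 °C, then 7–10 days drug-free regrowth, colonies stained with crystal violet, controls given medium alone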
# [1] = CV-1, Table III, normal monkey kidney epithelial cells, colony count after 7 to 10 days
# [2] = Table III, normal monkey kidney epithelial cells, colony count after 7 to 10 days
# [3] = Table IV, human bladder carcinoma, 24 hours treatment
# [4] = 5 mg/kg i.p. on day 1, 4, 8, 10, 12
smiles,measurement,setting,value
CCn1c(=Cc2sc3ccccc3[n+]2CC)sc(=C2Sc3ccc(C)cc3N2C)c1=O [Compound 50],Selectivity (ratio of IC50 for CV-1 and IC50 for CX-1),CX-1 cells,200
same,IC50,CX-1 cells,0.04 µg/mL
same,response vs control in vivo at 5 mg/kg,"human melanoma LOX; 5 mg/kg i.p. on day 1, 2, 3, 6, 9, 10, 13",163%
same,IC50,CV-1 cells; [1],8 µg/mL
CCn1c(=Cc2cccc[n+]2CC)sc(=C2Sc3ccccc3N2C)c1=O [Compound 283],response vs control in vivo at 5 mg/kg,"human melanoma LOX; 5 mg/kg i.p. on day 1, 4, 8, 11, 14",> 350%
CCn1c(=Cc2sc3ccc(Cl)cc3[n+]2CC)sc(=C2Sc3ccc4ccccc4c3N2C)c1=O [Compound 94],Selectivity (ratio of IC50 for CV-1 and IC50 for CX-1),CX-1 cells,400
same,IC50,CX-1 cells,0.05 µg/mL
same,response vs control in vivo at 10 mg/kg,"human melanoma LOX; 10 mg/kg i.p. on day 1, 3, 6, 8, 10, 13, 15",161%
same,IC50,CV-1 cells; [1],20 µg/mL
CCn1c(=Cc2sc3ccc4ccccc4c3[n+]2CC)sc(=C2Oc3ccc(Cl)cc3N2C)c1=O [Compound 209],Selectivity,LOX cells,100
same,IC50,LOX cells,0.2 µg/mL
same,IC50,"CV-1 cells; CV-1, 24 h, Table V",20 µg/mL
same,IC50,"CV-1 cells; CV-1, 24 h, Table VII",20 µg/mL
same,Selectivity,CRL 1420 cells,200
same,IC50,CRL 1420 cells,0.1 µg/mL
CCn1c(=Cc2sc3c4ccccc4ccc3[n+]2CC)sc(=C2Sc3ccc4ccccc4c3N2C)c1=O [Compound 92],Selectivity (ratio of IC50 for CV-1 and IC50 for CX-1),CX-1 cells,500
same,CX-1 (IC50),CX-1 cells,0.04 µg/mL
same,response vs control in vivo at 2.5 mg/kg,"human melanoma LOX; 2.5 mg/kg i.p. on day 1, 2, 3, 4, 6, 7, 8, 10, 11",186%
same,CV-1 (IC50),CV-1 cells; [2],20 µg/mL
CCn1c(=Cc2oc3ccccc3[n+]2C)sc(=C2Sc3ccccc3N2C)c1=O [Compound 12],Selectivity (ratio of IC50 for CV-1 and IC50 for CX-1),CX-1 cells,> 667
same,CX-1 (IC50),CX-1 cells,0.03 µg/mL
same,Selectivity,LOX cells,> 300
same,LOX(IC50),LOX cells,< 0.1 µg/mL
same,Selectivity,EJ cells,> 400
same,EJ (IC50),EJ cells; [3],0.05 µg/mL
same,CV-1 (IC50),CV-1 cells; [2],> 20 µg/mL
same,CV-1 (IC50),CV-1 cells; Table IV,> 20 µg/mL
same,CV-1 (IC50),CV-1 cells; Table V,> 30 µg/mL
same,CV-1 (IC50),CV-1 cells; Table VII,20 µg/mL
same,Selectivity,CRL 1420 cells,222
same,CRL-1420(IC50),CRL 1420 cells,0.09 µg/mL
C=CCn1c(=Cc2oc3ccccc3[n+]2CC)sc(=C2Sc3ccccc3N2C)c1=O [Compound 3],Selectivity (ratio of IC50 for CV-1 and IC50 for CX-1),CX-1 cells,200
same,IC50,CX-1 cells,0.03 µg/mL
same,response vs control in vivo at 5 mg/kg,"human melanoma LOX; 5 mg/kg i.p. on day 1, 4, 8, 11, 14, 16",218%
same,IC50,CV-1 cells; [1],6 µg/mL
CCn1c(=Cc2oc3ccc4ccccc4c3[n+]2CC)sc(=C2Oc3ccc4ccccc4c3N2C)c1=O [Compound 87],Selectivity (ratio of IC50 for CV-1 and IC50 for CX-1),CX-1 cells,400
same,IC50,CX-1 cells,0.05 µg/mL
same,response vs control in vivo at 10 mg/kg,"human melanoma LOX; 10 mg/kg i.p. on day 1, 3, 6, 9, 10",150%
same,IC50,CV-1 cells; [1],20 µg/mL
CCn1c(=Cc2cc[n+](CC)c3ccccc23)sc(=C2C=Cc3ccccc3N2C)c1=O [Compound 256],Selectivity (ratio of IC50 for CV-1 and IC50 for CX-1),CX-1 cells,200
same,IC50,CX-1 cells,0.02 µg/mL
same,response vs control in vivo at 5 mg/kg,human melanoma LOX; [4],171%
same,IC50,CV-1 cells; [1],4 µg/mL
CCn1c(=Cc2oc3cc4ccccc4cc3[n+]2CC)sc(=C2Sc3c(ccc4ccccc34)N2C)c1=O [Compound 237],IC50,"CV-1 cells; CV-1, 24 h, Table VII",8 µg/mL
same,Selectivity,CRL 1420 cells,267
same,IC50,CRL 1420 cells,0.03 µg/mL
CCn1c(=Cc2cccc[n+]2CC)sc(=C2Sc3c(ccc4ccccc34)N2C)c1=O [Compound 239],Selectivity (ratio of IC50 for CV-1 and IC50 for CX-1),CX-1 cells,200
same,IC50,CX-1 cells,0.1 µg/mL
same,Selectivity,LOX cells,400
same,IC50,LOX cells,0.05 µg/mL
same,Selectivity,EJ cells,250
same,IC50,EJ cells; [3],0.08 µg/mL
same,IC50,"CV-1 cells; CV-1, 24 h, Table IV",20 µg/mL
same,IC50,"CV-1 cells; CV-1, 24 h, Table V",20 µg/mL
same,IC50,"CV-1 cells; CV-1, 24 h, Table VII",20 µg/mL
same,IC50,CV-1 cells; [1],20 µg/mL
same,Selectivity,CRL 1420 cells,400
same,IC50,CRL 1420 cells,0.05 µg/mL
CCn1c(=Cc2sc3c([n+]2CC)-c2ccccc2CC3)sc(=C2Oc3ccc(Cl)cc3N2C)c1=O [Compound 213],Selectivity,LOX cells,200
same,IC50,LOX cells,0.03 µg/mL
same,Selectivity,EJ cells,200
same,IC50,EJ cells; [3],0.03 µg/mL
same,IC50,"CV-1 cells; CV-1, 24 h, Table IV",6 µg/mL
same,IC50,"CV-1 cells; CV-1, 24 h, Table V",6 µg/mL
same,IC50,"CV-1 cells; CV-1, 24 h, Table VII",6 µg/mL
same,Selectivity,CRL 1420 cells,200
same,IC50,CRL 1420 cells,0.03 µg/mL
CCn1c(=Cc2oc3c4ccccc4ccc3[n+]2CC)sc(=C2Oc3ccc4ccccc4c3N2C)c1=O [Compound 316],Selectivity (ratio of IC50 for CV-1 and IC50 for CX-1),CX-1 cells,100
same,CX-1 (IC50),CX-1 cells,0.01 µg/mL
same,response vs control in vivo at 5 mg/kg,human melanoma LOX; [4],> 340%
same,CV-1 (IC50),CV-1 cells; [2],1 µg/mL
CCn1c(=Cc2sc3ccccc3[n+]2CC)sc(=C2Sc3ccc(Cl)cc3N2C)c1=O [Compound 244],IC50,CX-1 cells,10 µg/mL
same,response vs control in vivo at 10 mg/kg,"human melanoma LOX; 10 mg/kg i.p. on day 1, 2, 6, 8, 13",150%
same,IC50,CV-1 cells; [1],0.05 µg/mL
CCn1c(=Cc2oc3ccccc3[n+]2CC)sc(=C2Sc3ccccc3N2C)c1=O [Compound 245],Selectivity (ratio of IC50 for CV-1 and IC50 for CX-1),CX-1 cells,350
same,CX-1 (IC50),CX-1 cells,7 µg/mL
same,response vs control in vivo at 15 mg/kg,"human melanoma LOX; 15 mg/kg i.p. on day 1, 5, 9, 13, 19",200%
same,CV-1 (IC50),CV-1 cells; [2],0.02 µg/mL
CCn1c(=C2CCC[n+]3c2sc2ccccc23)sc(=C2Sc3ccccc3N2C)c1=O [Compound 343],response vs control in vivo at 5 mg/kg,"human melanoma LOX; 5 mg/kg i.p. on day 1, 3, 4, 6, 8, 10, 13",188%
CCn1c(=Cc2oc3c4ccccc4ccc3[n+]2CC)sc(=C2Sc3c(ccc4ccccc34)N2C)c1=O [Compound 238],Selectivity (ratio of IC50 for CV-1 and IC50 for CX-1),CX-1 cells,400
same,IC50,CX-1 cells,0.05 µg/mL
same,Selectivity,LOX cells,1000
same,IC50,LOX cells,0.02 µg/mL
same,Selectivity,EJ cells,2000
same,IC50,EJ cells; [3],0.01 µg/mL
same,IC50,"CV-1 cells; CV-1, 24 h, Table IV",20 µg/mL
same,IC50,"CV-1 cells; CV-1, 24 h, Table V",20 µg/mL
same,IC50,"CV-1 cells; CV-1, 24 h, Table VII",20 µg/mL
same,IC50,CV-1 cells; [1],20 µg/mL
same,Selectivity,CRL 1420 cells,1000
same,IC50,CRL 1420 cells,0.02 µg/mL
CCn1c(=Cc2ccc3ccccc3[n+]2CC)sc(=C2Sc3ccccc3N2C)c1=O [Compound 341],Selectivity,LOX cells,200
same,LOX(IC50),LOX cells,0.03 µg/mL
same,CV-1 (IC50),CV-1 cells; Table V,6 µg/mL
same,CV-1 (IC50),CV-1 cells; Table VII,6 µg/mL
same,Selectivity,CRL 1420 cells,200
same,CRL-1420(IC50),CRL 1420 cells,0.03 µg/mL
CCn1c(=CC2=[N+](CC)CCS2)sc(=C2SC3=C(CCCC3)N2C)c1=O [Compound 211],response vs control in vivo at 5 mg/kg,"human melanoma LOX; 5 mg/kg i.p. on day 1, 4, 8, 10",194%
CCn1c(=Cc2scc[n+]2CC)sc(=C2Oc3ccc(-c4ccccc4)cc3N2C)c1=O [Compound 210],Selectivity (ratio of IC50 for CV-1 and IC50 for CX-1),CX-1 cells,100
same,IC50,CX-1 cells,0.1 µg/mL
same,Selectivity,EJ cells,100
same,IC50,EJ cells; [3],0.1 µg/mL
same,IC50,"CV-1 cells; CV-1, 24 h, Table IV",10 µg/mL
same,IC50,"CV-1 cells; CV-1, 24 h, Table VII",10 µg/mL
same,IC50,CV-1 cells; [1],10 µg/mL
same,Selectivity,CRL 1420 cells,111
same,IC50,CRL 1420 cells,0.09 µg/mL
CCn1c(=Cc2cccc[n+]2CC)sc(=C2Sc3ccccc3N2C)c1=O [Compound 342],response vs control in vivo at 5 mg/kg,"human melanoma LOX; 5 mg/kg i.p. on day 1, 5, 8, 11, 14",> 350%
CCn1c(=Cc2scc(C)[n+]2CC)sc(=C2Sc3ccc4ccccc4c3N2C)c1=O [Compound 344],response vs control in vivo at 5 mg/kg,human melanoma LOX; [4],> 288%
